Values after ≈ are worked out from the molar mass of the structure shown. Where two headings read alike, the source gives them in different places.
Tested on: A. baumannii
Test: microbe, parasite or virus in culture
Conditions: Acinetobacter baumannii, 100%
Protocol: MIC determinations were performed using the broth microdilution method and in line with CLSI guidelines M07 and M100 (refs. [37],[38]). Bacterial inocula were prepared by diluting a 0.5 McFarland suspension in CAMHB or lysogeny broth (LB) specifically for A. baylyi isolates. […] MIC values of all of the tested antibiotics were read as the lowest compound concentration inhibiting bacterial growth by naked eye or beyond which the OD600 ceased to decrease.

C[C@@H](O)[C@H]1C(=O)N2C(C(=O)O)=C(S[C@@H]3CN[C@H](C(=O)N(C)C)C3)[C@H](C)[C@H]12 [meropenem, reference compound]
MIC (read-out: MIC 100%, ROB08705, Study LGC295147): 32 µg/mL (≈ 83.4 µM) | MIC (read-out: MIC 100%, ROB08705, Study LGC296813): 32 µg/mL (≈ 83.4 µM) | MIC (read-out: MIC 100%, ROB08705, Study LGC299544): 32 µg/mL (≈ 83.4 µM) | MIC (read-out: MIC 100%, ROB08705, Study LGC301026): 64 µg/mL (≈ 167 µM) | MIC (read-out: MIC 100%, ROB08705, Study LGC308175): 32 µg/mL (≈ 83.4 µM) | MIC (read-out: MIC 100%, ROB08705, Study ROC003): 32 µg/mL (≈ 83.4 µM) | MIC (read-out: MIC 100%, ROB08705, Study ROC004): 64 µg/mL (≈ 167 µM) | MIC (read-out: MIC 100%, ROB08705, Study ROC005): 64 µg/mL (≈ 167 µM) | MIC (read-out: MIC 100%, ROB08705, Study ROC006): 64 µg/mL (≈ 167 µM) | MIC (read-out: MIC 100%, ROB08705, Study ROC007): 32 µg/mL (≈ 83.4 µM) | MIC (read-out: MIC 100%, ROB08705, Study ROC008): > 64 µg/mL | MIC (read-out: MIC 100%, ROB08705, Study ROC009): 32 µg/mL (≈ 83.4 µM) | MIC (read-out: MIC 100%, ROB08705, Study ROC010): 64 µg/mL (≈ 167 µM) | MIC (read-out: MIC 100%, ROB08705, Study ROC012): 32 µg/mL (≈ 83.4 µM) | MIC (read-out: MIC 100%, ROB08705, Study ROC013): 32 µg/mL (≈ 83.4 µM) | MIC (read-out: MIC 100%, ROB08706, Study LGC277937): 64 µg/mL (≈ 167 µM) | MIC (read-out: MIC 100%, ROB08706, Study LGC279800): > 64 µg/mL | MIC (read-out: MIC 100%, ROB08706, Study LGC281440): 32 µg/mL (≈ 83.4 µM) | MIC (read-out: MIC 100%, ROB08706, Study LGC282160): 64 µg/mL (≈ 167 µM) | MIC (read-out: MIC 100%, ROB08706, Study LGC282623): 64 µg/mL (≈ 167 µM) | MIC (read-out: MIC 100%, ROB08706, Study LGC283932): 64 µg/mL (≈ 167 µM) | MIC (read-out: MIC 100%, ROB08706, Study LGC284200): 32 µg/mL (≈ 83.4 µM) | MIC (read-out: MIC 100%, ROB08706, Study LGC284879): 64 µg/mL (≈ 167 µM) | MIC (read-out: MIC 100%, ROB08706, Study LGC285582): 64 µg/mL (≈ 167 µM) | MIC (read-out: MIC 100%, ROB08706, Study LGC286210): 64 µg/mL (≈ 167 µM) | MIC (read-out: MIC 100%, ROB08706, Study LGC293598): 64 µg/mL (≈ 167 µM) | MIC (read-out: MIC 100%, ROB08706, Study LGC294355): 64 µg/mL (≈ 167 µM) | MIC (read-out: MIC 100%, ROB08706, Study LGC295147): 64 µg/mL (≈ 167 µM) | MIC (read-out: MIC 100%, ROB08706, Study LGC296813): 64 µg/mL (≈ 167 µM) | MIC (read-out: MIC 100%, ROB08706, Study LGC299544): 64 µg/mL (≈ 167 µM) | MIC (read-out: MIC 100%, ROB08706, Study LGC301026): 64 µg/mL (≈ 167 µM) | MIC (read-out: MIC 100%, ROB08706, Study LGC308175): 64 µg/mL (≈ 167 µM) | MIC (read-out: MIC 100%, ROB08706, Study ROC004): 64 µg/mL (≈ 167 µM) | MIC (read-out: MIC 100%, ROB08706, Study ROC005): 64 µg/mL (≈ 167 µM) | MIC (read-out: MIC 100%, ROB08706, Study ROC006): > 64 µg/mL | MIC (read-out: MIC 100%, ROB08706, Study ROC007): 64 µg/mL (≈ 167 µM) | MIC (read-out: MIC 100%, ROB08706, Study ROC008): 64 µg/mL (≈ 167 µM) | MIC (read-out: MIC 100%, ROB08706, Study ROC009): 64 µg/mL (≈ 167 µM) | MIC (read-out: MIC 100%, ROB08706, Study ROC010): 32 µg/mL (≈ 83.4 µM) | MIC (read-out: MIC 100%, ROB08706, Study ROC012): 64 µg/mL (≈ 167 µM) | MIC (read-out: MIC 100%, ROB08706, Study ROC013): 64 µg/mL (≈ 167 µM) | MIC (read-out: MIC 100%, ROB08707, Study LGC277937): 32 µg/mL (≈ 83.4 µM) | MIC (read-out: MIC 100%, ROB08707, Study LGC279800): 32 µg/mL (≈ 83.4 µM) | MIC (read-out: MIC 100%, ROB08707, Study LGC281440): 32 µg/mL (≈ 83.4 µM) | MIC (read-out: MIC 100%, ROB08707, Study LGC282160): 32 µg/mL (≈ 83.4 µM) | MIC (read-out: MIC 100%, ROB08707, Study LGC282623): 64 µg/mL (≈ 167 µM) | MIC (read-out: MIC 100%, ROB08707, Study LGC283932): 64 µg/mL (≈ 167 µM) | MIC (read-out: MIC 100%, ROB08707, Study LGC284200): 32 µg/mL (≈ 83.4 µM) | MIC (read-out: MIC 100%, ROB08707, Study LGC284879): 64 µg/mL (≈ 167 µM) | MIC (read-out: MIC 100%, ROB08707, Study LGC285582): 32 µg/mL (≈ 83.4 µM) | MIC (read-out: MIC 100%, ROB08707, Study LGC286210): 32 µg/mL (≈ 83.4 µM) | MIC (read-out: MIC 100%, ROB08707, Study LGC293598): 32 µg/mL (≈ 83.4 µM) | MIC (read-out: MIC 100%, ROB08707, Study LGC294355): 32 µg/mL (≈ 83.4 µM) | MIC (read-out: MIC 100%, ROB08707, Study LGC295147): 64 µg/mL (≈ 167 µM) | MIC (read-out: MIC 100%, ROB08707, Study LGC296813): 32 µg/mL (≈ 83.4 µM) | MIC (read-out: MIC 100%, ROB08707, Study LGC299544): 64 µg/mL (≈ 167 µM) | MIC (read-out: MIC 100%, ROB08707, Study LGC301026): 32 µg/mL (≈ 83.4 µM) | MIC (read-out: MIC 100%, ROB08707, Study LGC308175): 32 µg/mL (≈ 83.4 µM) | MIC (read-out: MIC 100%, ROB08707, Study ROC004): 32 µg/mL (≈ 83.4 µM) | MIC (read-out: MIC 100%, ROB08707, Study ROC005): 32 µg/mL (≈ 83.4 µM) | MIC (read-out: MIC 100%, ROB08707, Study ROC006): 64 µg/mL (≈ 167 µM) | MIC (read-out: MIC 100%, ROB08707, Study ROC007): 64 µg/mL (≈ 167 µM) | MIC (read-out: MIC 100%, ROB08707, Study ROC008): 32 µg/mL (≈ 83.4 µM) | MIC (read-out: MIC 100%, ROB08707, Study ROC009): 32 µg/mL (≈ 83.4 µM) | MIC (read-out: MIC 100%, ROB08707, Study ROC010): 32 µg/mL (≈ 83.4 µM) | MIC (read-out: MIC 100%, ROB08707, Study ROC012): 32 µg/mL (≈ 83.4 µM) | MIC (read-out: MIC 100%, ROB08707, Study ROC013): 32 µg/mL (≈ 83.4 µM) | MIC (read-out: MIC 100%, ROB08708, Study LGC277937): > 64 µg/mL | MIC (read-out: MIC 100%, ROB08708, Study LGC279800): 32 µg/mL (≈ 83.4 µM) | MIC (read-out: MIC 100%, ROB08708, Study LGC281440): 16 µg/mL (≈ 41.7 µM) | MIC (read-out: MIC 100%, ROB08708, Study LGC282160): 16 µg/mL (≈ 41.7 µM) | MIC (read-out: MIC 100%, ROB08708, Study LGC282623): 32 µg/mL (≈ 83.4 µM) | MIC (read-out: MIC 100%, ROB08708, Study LGC283932): 32 µg/mL (≈ 83.4 µM) | MIC (read-out: MIC 100%, ROB08708, Study LGC284200): 32 µg/mL (≈ 83.4 µM) | MIC (read-out: MIC 100%, ROB08708, Study LGC284879): 32 µg/mL (≈ 83.4 µM) | MIC (read-out: MIC 100%, ROB08708, Study LGC285582): 32 µg/mL (≈ 83.4 µM) | MIC (read-out: MIC 100%, ROB08708, Study LGC286210): 16 µg/mL (≈ 41.7 µM) | MIC (read-out: MIC 100%, ROB08708, Study LGC293598): 16 µg/mL (≈ 41.7 µM) | MIC (read-out: MIC 100%, ROB08708, Study LGC294355): 16 µg/mL (≈ 41.7 µM) | MIC (read-out: MIC 100%, ROB08708, Study LGC295147): 32 µg/mL (≈ 83.4 µM) | MIC (read-out: MIC 100%, ROB08708, Study LGC296813): 32 µg/mL (≈ 83.4 µM) | MIC (read-out: MIC 100%, ROB08708, Study LGC299544): 32 µg/mL (≈ 83.4 µM) | MIC (read-out: MIC 100%, ROB08708, Study LGC301026): 32 µg/mL (≈ 83.4 µM) | MIC (read-out: MIC 100%, ROB08708, Study LGC308175): 64 µg/mL (≈ 167 µM) | MIC (read-out: MIC 100%, ROB08708, Study ROC004): 32 µg/mL (≈ 83.4 µM) | MIC (read-out: MIC 100%, ROB08708, Study ROC005): 16 µg/mL (≈ 41.7 µM)
